Patent US20240109863A1, “2-PYRIDONE DERIVATIVE, AND PREPARATION METHOD THEREFOR AND PHARMACEUTICAL APPLICATION THEREOF” (KPC PHARMACEUTICALS, INC, priority 2020, published 2024)

Tests used:
[1] = data of phase II, cited from earlier work
[2] = preclinical toxicology and data of phase I; cited from earlier work
[3] = In vivo pharmacokinetics in mice; conditions: male ICR mice, intragastric, single dose 3 mg/Kg; for Area of curve / half-life: plasma; for half-life: mouse, po
Description: Mice were used as test animals, and intragastrically administered with the compounds of Example 1 and Example 46, and then the drug concentrations in plasma at different time points were measured. The pharmacokinetic performance of the compounds of the present invention in mice was studied, and the drug metabolism characteristics were evaluated. In the example, healthy adult male ICR mice with similar body weight were selected, and orally administered with drugs once at a dose of 3.0 mg/kg. Whole blood was collected before the administration and 1 h, 2 h, 4 h, 6 h, 8 h, 12 h, 24 h and 48 h after the administration, respectively. LC/MS/MS method was established to determine the concentrations of prototype drugs in plasma samples. The main pharmacokinetic parameters were calculated using WinNonlin 6.3 NCA model.
Experimental drug: the compounds obtained in Example 1 and Example 46.
Experimental animals: 9 healthy adult male ICR mice, equally divided into 3 groups, 3 mice in each group, purchased from Shanghai Xipu'er-Bikai Experimental Animal Co., Ltd., with an animal certificate number: SOCK (Shanghai) 2018-0006 2018 0006 010467.
Preparation of drug: A certain amount of the compounds of Example 1 and Example 46 were accurately weighed, put into a 15 ml sample tube, wetted by 5 μL of Tween 80, and then added with 5.2 mL of 2% hydroxypropyl methylcellulose (HPMC) solution. The mixture was sonicated and mixed by vortex to obtain a homogeneous suspension. The drugs were freshly prepared just before use.
Administration: After fasting overnight, ICR mice were intragastrically administered with the drugs at a dose of 3.0 mg/kg.
Operation: The mice were intragastrically administered with the compounds of Example 1 and Example 46. Whole blood was collected before the administration and 1 h, 2 h, 4 h, 6 h, 8 h, 12 h, 24 h and 48 h after the administration, then anticoagulated with heparin sodium, and centrifuged at 4° C. for 5 min. Plasma was separated, and stored at −80° C. for determination.
Determination of the contents of the compounds to be tested in the mice plasma after intragastric administration of drugs: 12.5 μL of the mice plasma to be tested at each time point after the administration of the compounds of Example 1 and Example 46 were taken respectively, mixed in pairs, and added with 100 μL of the internal standard solution and 125 μL of methanol. The mixture was mixed by vortex for 2 min, and centrifuged at 13000 rpm for 10 min at 4° C. The supernatant was taken for LC-MS/MS analysis.

THRα = target: T1, THRα (Homo sapiens, UniProt P10827); experiment: THRα binding assay (as the THRβ assay, THRβ replaced with THRα); type: biochemical; conditions: for EC50: THRα in place of THRβ; for THRα/β selectivity (fold): ratio of THRα EC50 to THRβ EC50
T1 construct: GST
T1 sequence (P10827 1-410 isoform P10827-2, other chains not shown): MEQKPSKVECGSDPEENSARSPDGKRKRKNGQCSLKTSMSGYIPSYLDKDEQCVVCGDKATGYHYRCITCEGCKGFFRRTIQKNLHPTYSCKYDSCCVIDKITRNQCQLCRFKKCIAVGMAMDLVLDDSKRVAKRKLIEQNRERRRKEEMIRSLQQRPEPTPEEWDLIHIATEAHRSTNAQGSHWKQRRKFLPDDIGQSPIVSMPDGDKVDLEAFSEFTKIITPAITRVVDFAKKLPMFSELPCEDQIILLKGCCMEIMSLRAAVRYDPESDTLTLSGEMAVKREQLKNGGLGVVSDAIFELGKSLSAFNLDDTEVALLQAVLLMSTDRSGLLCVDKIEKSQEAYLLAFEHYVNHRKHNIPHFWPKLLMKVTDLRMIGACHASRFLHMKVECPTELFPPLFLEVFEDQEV
T1 sequence (P19793 whole entry partner, other chains not shown): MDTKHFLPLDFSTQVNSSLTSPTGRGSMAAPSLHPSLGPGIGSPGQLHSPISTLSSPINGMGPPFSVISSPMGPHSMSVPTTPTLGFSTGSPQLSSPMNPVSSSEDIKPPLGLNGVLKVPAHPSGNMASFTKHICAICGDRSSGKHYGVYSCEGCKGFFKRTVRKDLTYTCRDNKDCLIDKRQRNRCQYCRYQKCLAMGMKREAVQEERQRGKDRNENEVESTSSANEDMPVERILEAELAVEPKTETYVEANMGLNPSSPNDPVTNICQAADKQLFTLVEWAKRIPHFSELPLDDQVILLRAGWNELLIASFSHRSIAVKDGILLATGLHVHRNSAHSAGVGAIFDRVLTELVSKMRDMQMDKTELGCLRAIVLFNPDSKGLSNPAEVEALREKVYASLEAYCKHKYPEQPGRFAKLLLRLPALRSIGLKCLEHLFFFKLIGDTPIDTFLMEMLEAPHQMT

THRβ = target: T2, THRβ (Homo sapiens, UniProt P10828); experiment: THRβ binding assay (time-resolved FRET coactivator peptide recruitment); type: biochemical; conditions: THRβ-LBD/RXRα, SRC2-2 coactivator peptide recruitment, 4 hours at room temperature
T2 construct: RXRα and THRβ-LBD Eu-anti-GST antibody with GST tag
T2 sequence (P10828 217-461 limits assumed, other chains not shown): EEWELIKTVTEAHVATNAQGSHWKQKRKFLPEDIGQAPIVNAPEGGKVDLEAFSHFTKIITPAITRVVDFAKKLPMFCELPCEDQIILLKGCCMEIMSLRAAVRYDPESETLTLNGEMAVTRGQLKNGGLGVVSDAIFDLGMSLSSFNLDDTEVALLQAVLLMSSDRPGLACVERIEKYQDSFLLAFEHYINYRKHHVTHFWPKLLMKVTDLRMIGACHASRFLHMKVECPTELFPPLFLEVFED
T2 sequence (P19793 whole entry partner, other chains not shown, the tested form may be a part): as the sequence (P19793 whole entry partner, other chains not shown) above
Description: Experimental methods: In vitro analysis of the agonistic effect of compounds on THRβ was performed using time-resolved fluorescence resonance energy transfer coactivator peptide recruitment assays. The assay used biotin-SRC2-2 coactivator peptide, streptavidin-d2, RXRα and THRβ-LBD Eu-anti-GST antibody with GST tag. Eu-anti-GST antibody indirectly labeled THRβ-LBD by binding to the GST tag. Streptavidin-d2 indirectly labeled the SRC2-2 coactivator peptide by binding to the biotin tag. In the presence of RXRα, THRβ-LBD can form heterodimer THRβ-LBD/RXRα with it. […] According to the effect of different concentrations of the compound on the activity of THRβ, the agonistic ability of the compound can be evaluated.
The detailed procedure is as follows: • a. 100× reference compound or compound was prepared with DMSO, and equally diluted by 1:3. • b. 100× gradiently diluted reference compound or compound was diluted with 1× reaction buffer to 4×, which was then added to an assay plate. • c. A mixed solution of 4× THRβ-LBD and 4× RXRα was prepared with 1× reaction buffer, and added to the assay plate. • d. A mixed solution of 2× biotin-SRC2-2, 2× Eu-anti-GST, and 2× streptavidin-d2 was prepared with 1× reaction buffer, and added to the assay plate. • e. The assay plate was centrifuged at 1000 rpm for 1 min, and incubated at room temperature in the dark for 4 hours. • f.

SMILES	severe cases ([1]; not related to treatment)	adverse effects (AEs) mild [1]	adverse effects (AEs) moderate [1]	LDL cholesterol, triglycerides and lipoproteins [2]	Peak plasma concentration [3]	Area of curve [3]	half-life [3]	EC50 (THRα)	THRα/β selectivity (fold) (THRα)	EC50 (THRβ)
CC(C)c1cc(Oc2c(Cl)cc(-n3nc(C#N)c(=O)[nH]c3=O)cc2Cl)n[nH]c1=O [Control compound 2, MGL-3196]	3	85%	15%	significantly reduce						
CC(C)n1cc(Oc2c(Cl)cc(-n3nc(C#N)c(=O)[nH]c3=O)cc2Cl)ccc1=O [Example 1, 2-(3,5-Dichloro-4-((1-isopropyl-6-oxo-1,6-dihydropyridin-3-yl)oxy)phenyl)-3,5-dioxo-2,3,4,5-tetrahydro-1,2,4-triazine-6-carbonitrile]					54.0 ng/mL	0.5352 µg·h/mL	5.6 h	49 nM	4.5 fold	11 nM
CC1CCc2c(Oc3c(Cl)cc(-n4nc(C#N)c(=O)[nH]c4=O)cc3Cl)ccc(=O)n21 (stereo not shown) [Example 46, 2-(3,5-dichloro-4-((3-methyl-5-oxo-1,2,3,5-tetrahydroindoline-8-yl)oxy)phenyl)-3,5-dioxo-2,3,4,5-tetrahydro-1,2,4-triazine-6-carbonitrile]					92.37 ng/mL	1.77403 µg·h/mL	11.2 h	930 nM	9.1 fold	102 nM
